Source: patent US4145554A, “3-Nitropyrazole derivatives” (Eli Lilly and Company, priority 1977, dated 1979)
Values after ≈ are worked out from the molar mass of the structure shown. Read-outs that look alike come from different tables or passages of the source.

Legend:
[1] = tested on: Mycoplasma hyorhinis; test: in vitro tube dilution test (MIC); format: cell-based
Text: (§1) Our compound, 1-(2-hydroxyethyl)-3-nitro-4-pyrazolecarboxamide, has been extensively tested in vitro to determine the range of microorganisms against which it is active. The table of data below reports the minimum inhibitory concentration (MIC) at which the compound is effective in controlling a variety of microorganisms in a standard tube dilution test system. The MIC is reported as micrograms of compound per milliliter.
(§2) The other preferred compounds of our invention have also been thoroughly tested in the in vitro tube dilution test.

[2] = tested on: Pseudomonas sp.; test: in vitro tube dilution test (MIC); format: cell-based
Text: as §1, §2

[3] = tested on: Salmonella heidelburg 1593; test: in vitro tube dilution test (MIC); format: cell-based; conditions: Salmonella heidelburg 1593, tube dilution
Text: as §1, §2

[4] = tested on: Salmonella pullorum Ill.; test: in vitro tube dilution test (MIC); format: cell-based; conditions: Salmonella enterica
Text: as §1, §2

[5] = tested on: Salmonella typhimurium 1335; test: in vitro tube dilution test (MIC); format: cell-based; conditions: Salmonella enterica; Salmonella typhimurium 1335, tube dilution
Text: as §1, §2

[6] = tested on: Escherichia coli 0127; test: in vitro tube dilution test (MIC); format: cell-based; conditions: Escherichia coli 0127, tube dilution
Text: as §2

[7] = tested on: Mycoplasma gallisepticum 38502; test: in vitro tube dilution test (MIC); format: cell-based; conditions: Mycoplasmoides gallisepticum; Mycoplasma gallisepticum 38502, tube dilution
Text: as §2

[8] = tested on: Staphylococcus aureus 3055; test: in vitro tube dilution test (MIC); format: cell-based; conditions: Staphylococcus aureus 3055, tube dilution
Text: as §2

[9] = tested on: Salmonella dublin; test: in vitro tube dilution test (MIC); format: cell-based; conditions: Salmonella enterica; Salmonella dublin, tube dilution; read-out: MIC
[10] = tested on: Staphylococcus aureus sp. 1130; test: in vitro tube dilution test (MIC); format: cell-based; conditions: read-out: MIC
[11] = tested on: Vibrio coli 3811; test: in vitro tube dilution test (MIC); format: cell-based; conditions: Campylobacter coli; Vibrio coli 3811, tube dilution; read-out: MIC
[12] = tested on: Erwinia amylovora; test: Fire blight of pear, in vivo greenhouse test
Experimental: An in vivo test was conducted against the fire blight organism, Erwinia amylovora. Plants infected with E. amylovora were sprayed with aqueous dispersions containing 100 ppm. and 500 ppm. of the test compounds. […] The compounds are identified below by their compound numbers in the above listing.

[13] = tested on: H. meleagridis; test: Blackhead in poultry, turkeys; format: in vivo
Experimental: One- to three-week-old chicks and turkey poults were obtained from homogeneous source flocks and allocated into treatment groups. Some groups were held as infected, untreated controls, and other groups were treated with 3-nitropyrazoles by administering the compounds in the birds' feed. Various concentrations of the pyrazoles were administered to determine the least concentration which protected the birds. A few days after the administration of medicated feed began, all of the birds were challenged by rectally administering a suspension of at least 5,000 H. meleagridis protozoa per chick. The challenge organisms had been originally obtained from infected chickens, and were grown in vitro to provide a supply of organisms for testing.
The birds were held for about seven days after the challenge was administered, during which time the administration of pyrazole-medicated feed was continued. Then all of the chicks, including the untreated, infected controls, were sacrificed and necropsied. The cecum and the liver of each bird were examined for characteristic H. meleagridis lesions.
For each compound, the lowest feed concentration which gave an active response is indicated. While feed consumption data were not taken during the tests, the birds ate at such a rate that a feed concentration of 0.02 percent is equivalent to a treatment rate of about 10 mg./kg./day.

[14] = tested on: Salmonella typhimurium; test: Salmonellosis in chickens, single injection to day-old chicks; format: in vivo; conditions: Salmonella enterica, TYPHIMURIUM, 168 h; single injection of 60 mg./kg.; seven days; read-out: Survival (converted)
Experimental: A number of our 3-nitropyrazoles have been tested against an induced infection of Salmonella typhimurium in day-old chicks. The test was conducted by administering a single injection of 60 mg./kg. of the compounds to each of five chicks. The following day, the chicks were challenged by the subcutaneous injection of a dispersion of S. typhimurium organisms sufficient to kill most or all of the untreated control chicks.
Some of the compounds were tested more than once, in which instances the data are reported as the total survivors from the multiple treatment groups. Untreated, challenged control groups of chicks were tested together with each batch of groups of chicks to which test compounds were administered. Since the mortality of the untreated control chicks varied somewhat from one group of tests to another, results of the untreated control groups are reported below with each test.

[15] = tested on: S. typhimurium; test: Salmonella typhimurium in chickens, medicated feed; format: in vivo, chicks; conditions: 200 gm./ton feed; for Avg. Wt.: surviving chicks
[16] = tested on: avian E. coli; test: Colibacillosis in chickens, medicated feed; format: in vivo
[17] = tested on: Escherichia coli; test: in vitro tube dilution test (MIC); format: cell-based; conditions: tube dilution, read-out: MIC
In short: (§3)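 Standard tube dilution test; MIC reported as micrograms of compound per milliliter.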

[18] = tested on: Mycoplasma synoviae; test: in vitro tube dilution test (MIC); format: cell-based; conditions: Mycoplasmopsis synoviae, footnote 1: M. synoviae
In short: as §3

[19] = tested on: Pasteurella multocida; test: in vitro tube dilution test (MIC); format: cell-based; conditions: tube dilution, read-out: MIC
In short: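 Standard tube dilution test; MIC is the lowest compound concentration controlling growth, given in μg/mL.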

[20] = tested on: Streptococcus sp. 80; test: in vitro tube dilution test (MIC); format: cell-based; conditions: Streptococcus sp. 80, tube dilution; read-out: MIC
Text: Other compounds of our invention have also been tested in the tube dilution test and shown to have in vitro activity against a number of microorganisms. The table below reports tests of a number of exemplary compounds against exemplary microorganisms. The compounds are identified by their numbers in the listing above. The data are reported as the MIC in micrograms per milliliter against the named exemplary microorganisms.

[21] = 100 gm./ton, further test, about 5 weeks of age
[22] = 200 gm./ton, further test, about 5 weeks of age
[23] = 300 gm./ton feed, about 5 weeks old, 10^-2 dilution challenge, first test

C=CCn1cc(C(N)=O)c([N+](=O)[O-])n1 [Compound 16, 1-allyl-3-nitro-4-pyrazolecarboxamide]
MIC [1]: 50 µg/mL (≈ 255 µM)
MIC [2]: 12.5 µg/mL (≈ 63.7 µM)
MIC [3]: 25 µg/mL (≈ 127 µM)
MIC [4]: < 1.56 µg/mL
MIC [5]: 6.25 µg/mL (≈ 31.9 µM)
MIC [6]: 100 µg/mL (≈ 510 µM)
MIC [7]: 50 µg/mL (≈ 255 µM)
MIC [8]: 10 µg/mL (≈ 51 µM)
MIC [9]: 6.25 µg/mL (≈ 31.9 µM)
MIC ([10]; Staphylococcus aureus, SP.1130, Staphyloccocus 1130, tube dilution): 6.25 µg/mL (≈ 31.9 µM)
MIC [11]: 3.12 µg/mL (≈ 15.9 µM)
Percent Control of fire blight ([12]; 100 ppm.): 100%
Percent Control of fire blight ([12]; 500 ppm.): 60%
Active Level (lowest feed concentration which gave an active response) [13]: .02%
responders at 60 mg/kg [14]: 100%
Survival ([15]; Test B): 26/36
Avg. Wt. ([15]; Test B): 88 gm.
Survival ([15]; Test C): 25/48
Avg. Wt. ([15]; Test C): 64 gm.
Avg. Wt. [16, 21]: 1112 gm.
E. coli Lesions [16, 21]: 40/40
Mortality [16, 21]: 16/40
Avg. Wt. [16, 22]: 1266 gm.
E. coli Lesions [16, 22]: 31/40
Mortality [16, 22]: 11/40
E. coli Lesions [16, 23]: 16/30
Mortality [16, 23]: 0/30
Wt. [16, 23]: 1090 gm.

COC(=O)c1cn(CCO)nc1[N+](=O)[O-] [Compound 71, methyl 1-(2-hydroxyethyl)-3-nitro-4-pyrazolecarboxylate]
MIC [17]: > 50 µg/mL
MIC [18]: 0.39 µg/mL (≈ 1.81 µM)
MIC [19]: > 50 µg/mL
MIC [9]: > 50 µg/mL
MIC ([10]; Staphylococcus aureus sp. 1130, tube dilution): > 50 µg/mL
MIC [11]: > 50 µg/mL
MIC [20]: > 50 µg/mL
